Assay results taken from article PMC8049364, “Quantification of Macrophage-Driven Inflammation During Myocardial Infarction with ^18F-LW223, a Novel TSPO Radiotracer with Binding Independent of the rs6971 Human Polymorphism” (Journal of Nuclear Medicine, 2021).

What was measured:
[1] = target: T1, TSPO (Homo sapiens, UniProt P30536); assay: In vitro competition binding assay with ^3H-PK11195 in human brain homogenates (HAB, MAB, LAB); conditions: for LAB/HAB ratio: human brain homogenates, rs6971 genotyped
Protocol: (§1) All studies using human tissue were conducted in accordance with the National Health Service Research Ethics Committee South East Scotland (Edinburgh Brain and Tissue Bank, 16/ES/0084). Supplemental Table 1 contains the Brain Bank Network reference number for all tissues used from the Edinburgh Brain and Tissue Bank. […] Samples were homogenized in ×10 w/v buffer (50 mM Tris-Base, pH 7.4, 4°C) before centrifugation (32,000g, 10 min, 4°C). Tissue pellets were then resuspended in ×10 w/v buffer and centrifuged again before resuspending in 2 mL of buffer. Samples were assessed for protein concentration using the Bio-Rad protein assay, aliquoted, and stored at −80°C until use. The competition binding assay protocol was adjusted from a previously reported protocol ([16]), as detailed within the supplemental materials.
(§2) In Vitro Human Competition Binding Assays
(§3) Briefly, 250 µg protein/mL in 200 µl of buffer was added to 100 µl of 1 nM 3H- […]
(§4) Aldrich, USA), PBR28 (ABX, Germany), AB5186 or LW223 at 14 different concentrations (0.001-3000 nM) for 90 min at 4 °C. Binding was terminated with the addition of ice cold buffer before being immediately filtered over a Whatman GF/B filters (Whatman, UK) pre-treated with 0.3% polyethylenimine (Sigma-Aldrich, USA) using a Brandel harvester (Brandel, USA). Filter paper was then removed, placed into 2.5 mL of Optiphase HiSafe 3 (Perkin Elmer, USA) and counted 48 hours later on a Hidex 300 SL (Hidex, Finland).
(§5) All binding assays were performed
(§6) GraphPad Prism version 6 (GraphPad Software, USA) was used to fit all binding affinity curves. A comparison of a one-site and two-site models was made using the least squares algorithm and model selection was compared using an F test. The null hypothesis (one-site fitting as more suitable) was rejected if p<0.05. Normalized mean […]
(§7) saturation binding results, Sup.Fig.2) was used to determine the best fitting model and to calculate LAB:HAB ratios. Affinity values (Ki) were calculated by fitting individual tissue

[2] = target: TSPO; assay: In vitro competition binding assay with ^3H-PK11195 in human heart homogenates (HAB, MAB, LAB); conditions: for Effect of rs6971 genetic polymorphism on Ki: human heart; for LAB/HAB ratio: human heart homogenates, rs6971 genotyped
Protocol: as §1, §2, §3, §4, §5, §6, §7

[3] = tested on: TSPO; conditions: cited from earlier work
[4] = cited from earlier work
[5] = humans; cited from earlier work
[6] = tested on: TSPO; conditions: humans; cited from earlier work
[7] = target: T1, TSPO; assay: In vitro competition binding assay with ^3H-PK11195 in human heart homogenates (HAB, MAB, LAB); conditions: human heart
Protocol: as §1, §2, §3, §4, §5, §6, §7

T1 sequence (P30536 2-169): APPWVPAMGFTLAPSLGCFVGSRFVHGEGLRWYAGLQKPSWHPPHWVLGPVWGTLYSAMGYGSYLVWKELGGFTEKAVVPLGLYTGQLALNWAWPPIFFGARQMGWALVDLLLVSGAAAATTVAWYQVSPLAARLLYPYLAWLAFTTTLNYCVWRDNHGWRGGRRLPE

COc1ccccc1CN(C(C)=O)c1cnccc1Oc1ccccc1 [PBR28, reference compound]
LAB/HAB ratio [1]: 48
Effect of rs6971 genetic polymorphism on Ki [2]: affected
LAB/HAB ratio [2]: 48

CCC(C)N([11CH3])C(=O)c1cc2ccccc2c(-c2ccccc2Cl)n1 (centres unmarked) [^11C-PK11195]
VT in the brain [3]: 0.6–0.74 mL/cm^3
parent in plasma ([4]; same lower species (rat)): ~40%
parent free fraction in plasma [5]: 1%
SUVpeak, heart [6]: 5
SUVpeak, lung [6]: 3

CCN(CC)C(=O)[C@H]1CCCc2c1c1c(OC)cccc1n2CC[18F] [^18F-GE180, Flutriciclamide]
VT in the brain [3]: 0.10–0.28 mL/cm^3

CCN(CC)C(=O)c1nc2ccccc2c(-c2ccccc2)c1CF [AB5186]
Effect of rs6971 genetic polymorphism on Ki ([1]; human brain): affected
LAB/HAB ratio [1]: 9
Effect of rs6971 genetic polymorphism on Ki [2]: affected
LAB/HAB ratio [2]: 7

CC[C@@H](C)N(C)C(=O)c1nc2ccccc2c(-c2ccccc2)c1CF [LW223]
Effect of rs6971 genetic polymorphism on Ki ([1]; human brain): unaffected
Ki ([1]; human brain): 0.6 nM
LAB/HAB ratio [1]: 1
Ki [7]: 1.7 nM
Effect of rs6971 genetic polymorphism on Ki [2]: unaffected
LAB/HAB ratio [2]: 1

CC[C@@H](C)N([11CH3])C(=O)c1nc(-c2ccccc2Cl)c2ccccc2n1 [^11C-ER176]
VT in the brain [3]: 1.6–3.5 mL/cm^3
parent free fraction in plasma [5]: 3.3%

CN(C(=O)Cn1c(=O)oc2ccc(-c3ccc(OCC[18F])cc3)cc21)c1ccccc1 [^18F-FEBMP]
original parent compound found in blood ([4]; rats, 30 min after injection): less than 10%

CCN(CC)C(=O)Cc1c(-c2ccc(OCCC[18F])cc2)nc2ccc(Cl)cn12 [^18F-PBR111]
VT in the brain [3]: 2.22–4.03 mL/cm^3
